Active and inactive are the calls of the source. The calls are words filed in the database; no cut-off is given here.

For series [1], the target named is T1, Amine oxidase [flavin-containing] B (Homo sapiens, UniProt P27338).
T1 sequence (P27338 whole entry): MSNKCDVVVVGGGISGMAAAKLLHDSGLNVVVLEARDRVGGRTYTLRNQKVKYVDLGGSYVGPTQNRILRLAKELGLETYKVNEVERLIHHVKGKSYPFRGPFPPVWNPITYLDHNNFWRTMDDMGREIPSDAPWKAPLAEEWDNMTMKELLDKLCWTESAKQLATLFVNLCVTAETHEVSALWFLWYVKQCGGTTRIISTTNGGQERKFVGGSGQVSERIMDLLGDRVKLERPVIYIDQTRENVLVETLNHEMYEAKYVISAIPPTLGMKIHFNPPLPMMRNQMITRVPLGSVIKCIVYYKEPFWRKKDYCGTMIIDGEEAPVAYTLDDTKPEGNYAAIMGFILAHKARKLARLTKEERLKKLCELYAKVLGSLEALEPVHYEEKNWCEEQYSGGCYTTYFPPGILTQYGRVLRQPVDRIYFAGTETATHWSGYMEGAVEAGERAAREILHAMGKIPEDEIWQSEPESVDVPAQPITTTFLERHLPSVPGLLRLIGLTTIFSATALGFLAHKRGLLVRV
The experiment in a line: Inhibition of human MAO-B.

A short description of series [2]: Selectivity index, ratio of IC50 for human MAO-A to IC50 for human MAO-B.
Series [3] has as its target T1, Amine oxidase [flavin-containing] B. The experiment in a line: Inhibition of human MAO-A. The format is ADME.
Series [4] deals with SH-SY5Y. The experiment in a line: Cytotoxicity against human SH-SY5Y cells at 5 to 50 uM after 24 hrs by MTT assay. It counts as cell-based. The conditions noted are these: dose 5-50 µM. For orientation: Formazan colour is commonly taken as a measure of viable cells.
Series [5] concerns BV-2. Nature of the series: Cytotoxicity against C57/BL6 mouse BV-2 cells at 5 to 50 uM after 24 hrs by MTT assay. The format is cell-based. The conditions noted are these: bv-2, 24 h, dose 5-50 µM.
Series [6] relates to BV-2. Nature of the series: Cytotoxicity against C57/BL6 mouse BV-2 cells assessed as induction of cell death at 50 uM after 24 hrs by MTT assay relative to control. It counts as cell-based. To be noted: bv-2, 24 h.
In series [7] the test system is SH-SY5Y. Nature of the series: Cytotoxicity against human SH-SY5Y cells assessed as induction of cell death at 50 uM after 24 hrs by MTT assay relative to control. It counts as cell-based.
For series [8], the system named is BV-2. The experiment in a line: Neuroprotective activity against LPS-induced oxidative stress in C57/BL6 mouse BV-2 cells assessed as decrease in ROS level at < 20 uM after 24 hrs by DCFH-DA dye based fluorescence assay. To be noted: dose microM <20, time 24.0 hrs. It counts as functional, cell-based.
Series [9] relates to SH-SY5Y. Nature of the series: Neuroprotective activity against LPS-induced oxidative stress in human SH-SY5Y cells assessed as decrease in ROS level at < 20 uM after 24 hrs by DCFH-DA dye based fluorescence assay. It counts as functional, cell-based. To be noted: dose microM <20, time 24.0 hrs.
The subject of series [10] is Mus musculus. The experiment in a line: Neuroprotective activity against MPTP-induced C57BL/6J mouse model of Parkinson's disease assessed as increase in average speed at 0.2 mg/kg, ip pretreated for 7 consecutive days followed by MPTP challenge and further treated with compound until day 14 by open field test. The format is functional, organism-based. The conditions noted are these: time 14.0 day.

Series [11] has as its system Mus musculus. The experiment in a line: Neuroprotective activity against MPTP-induced C57BL/6J mouse model of Parkinson's disease assessed as increase in total distance at 0.2 mg/kg, ip pretreated for 7 consecutive days followed by MPTP challenge and further treated with compound until day 14 by open field test. The format is functional, organism-based. The conditions noted are these: time 14.0 day.

The subject of series [12] is Mus musculus. The experiment in a line: Neuroprotective activity against MPTP-induced C57BL/6J mouse model of Parkinson's disease assessed as decrease in immobility time at 0.2 mg/kg, ip pretreated for 7 consecutive days followed by MPTP challenge and further treated with compound until day 14 by open field test. The format is functional, organism-based. To be noted: time 14.0 day.

Usually IC50 stands for the concentration at which inhibition is half-maximal. Lower therefore signals inhibition by little substance. For the compound `C#CCNC1CCc2c(SCc3ccc(Cl)cc3Cl)cccc21` (stereo unspecified), the IC50 in [1] turned out to be 3.76 µM. Also, the Ratio IC50 in series [2] worked out at 5.93.
The matching figures for `C#CCNC1CCc2c(SCc3cccc(OC)c3)cccc21` (stereo unspecified): 3.19 µM and 0.48.
In series [1], `C#CCNC1CCc2c(SCCc3ccc(Cl)cc3)cccc21` (stereo unspecified) showed a half-maximal inhibitory concentration (IC50) of 10.8 µM. Further, in series [2], the Ratio IC50 came out at 0.085.
The corresponding values for `C#CCNC1CCc2c(SCCc3ccc(OC)cc3)cccc21` (stereo unspecified) are 62 µM and 13.5.
Turning to `C#CCNC1CCc2c(SCc3ccc(Cl)c(Cl)c3)cccc21` (stereo unspecified), the IC50 in [1] worked out at 2.84 µM. Also, the Ratio IC50 in [2] turned out to be 0.026.
With `C#CCNC1CCc2c(SCc3ccccc3)cccc21` (stereo unspecified), the IC50 was 6.4 µM in [1] and “Not Active” in series [3]. In series [2], the Ratio IC50 is more than 15.6.
In series [1], `C#CCNC1CCc2c(SCc3ccc(C(F)(F)F)cc3)cccc21` (stereo unspecified) returned a concentration for half-maximal inhibition (IC50) of 9.68 µM. For the same compound, the Ratio IC50 in series [2] was 0.096.
As for `C#CCN[C@@H]1CCc2ccccc21` [RASAGILINE], the Activity entry in the series on SH-SY5Y [4] was “Non-Toxic”; in the series on BV-2 [5] it was “Non-Toxic”; in the series with BV-2 [6] it was 30%; in the series on SH-SY5Y [7] it was 30%. Moreover, the outcome with BV-2 [8], in the series on SH-SY5Y [9], in the series with Mus musculus [10], with Mus musculus [11] and with Mus musculus [12] was Active.
In the case of `C#CCNC1CCc2c(SCCc3ccc(Cl)c(Cl)c3)cccc21` (stereo unspecified), the IC50 in series [1] came to 3.85 µM. Moreover, the Ratio IC50 in series [2] amounted to 0.73.
The corresponding values for `C#CCNC1CCc2c(NCc3cccc(C(F)(F)F)c3)cccc21` (stereo unspecified) are 5.11 µM and 2.21.
Take `C#CCNC1CCc2c(SCc3cccc(C(F)(F)F)c3)cccc21` (stereo unspecified): the Activity result with SH-SY5Y [4] is “Non-Toxic”; in the series with BV-2 [5] it was “Non-Toxic”; in the series with BV-2 [6] it was 30%; in the series on SH-SY5Y [7], 30%. Moreover, in series [1], it took 0.0047 µM to reach half-maximal inhibition (IC50). In addition, the Ratio IC50 in series [2] turned out to be 1640. The outcome with BV-2 [8], in the series on SH-SY5Y [9], in the series with Mus musculus [10], in the series on Mus musculus [11] and in the series with Mus musculus [12] was Active.
For the compound `C#CCNC1CCc2c(SCCc3ccc(Br)cc3)cccc21` (stereo unspecified), the IC50 in series [1] worked out at 85.3 µM. Moreover, the Ratio IC50 in series [2] was 0.015.
In series [1], `C#CCNC1CCc2c(SCCc3cccc(Cl)c3)cccc21` (stereo unspecified) had an IC50 of 82.4 µM.
`C#CCNC1CCc2c(SCCc3cccc(Br)c3)cccc21` (stereo unspecified): in series [1], it took 30.5 µM to reach half-maximal inhibition (IC50). The Ratio IC50 in series [2] was 0.02.
The corresponding values for `C#CCNC1CCc2c(OCc3cccc(C(F)(F)F)c3)cccc21` (stereo unspecified) are 6.41 µM and 0.84.
The matching figures for `C#CCNC1CCc2c(SCc3ccc4ccccc4c3)cccc21` (stereo unspecified): 4.95 µM and 14.
The corresponding values for `C#CCNC1CCc2c(SCc3ccc(F)c(F)c3)cccc21` (stereo unspecified) are 2.65 µM and 0.99.
In series [1], `C#CCNC1CCc2c(SCCc3ccc(C(F)(F)F)cc3)cccc21` (stereo unspecified) yielded an IC50 of 16.1 µM. Also, the Ratio IC50 in series [2] was found to be 0.54.
The corresponding values for `C#CCNC1CCc2c(SCCc3ccc(C)cc3)cccc21` (stereo unspecified) are 25.8 µM and 0.18.
In the case of `C#CCNC1CCc2c(SCc3ccc(F)cc3F)cccc21` (stereo unspecified), half-maximal inhibition in series [1] (IC50) was put at 2.43 µM. Moreover, the Ratio IC50 in series [2] came out at 0.61.
`C#CCNC1CCc2c(SCCc3ccc(F)c(F)c3)cccc21` (stereo unspecified) gave an IC50 in [1] of 3.24 µM.
Still for that read-out and setting: the value for `C#CCNC1CCc2c(SCc3cccc(C)c3)cccc21` (stereo unspecified) was more than 100 µM.
Turning to `C#CCNC1CCc2c(SCCc3cccc(F)c3)cccc21` (stereo unspecified), the IC50 in series [1] was determined as 4.3 µM. Besides, the Ratio IC50 in [2] is 1.82.
The corresponding values for `C#CCNC1CCc2c(SCc3cccc(Cl)c3)cccc21` (stereo unspecified) are 23.3 µM and 0.047.
The corresponding values for `C#CCNC1CCc2c(SCc3ccc(Br)cc3)cccc21` (stereo unspecified) are 1.31 µM and 0.37.
The compound `C#CCNC1CCc2c(SCc3cccc(F)c3)cccc21` (stereo unspecified) showed an IC50 in series [1] of 1.48 µM. Further, in series [2], the Ratio IC50 stood at 7.79.
The matching figures for `C#CCNC1CCc2c(SCc3ccc(C)cc3)cccc21` (stereo unspecified): 1.56 µM and 0.2.
The matching figures for `C#CCNC1CCc2c(SCc3ccc(OC)cc3)cccc21` (stereo unspecified): 1.9 µM and 2.09.
The matching figures for `C#CCNC1CCc2c(SCCc3cccc(OC)c3)cccc21` (stereo unspecified): 28.7 µM and 0.13.
With `C#CCNC1CCc2c(SCCc3cccc(C)c3)cccc21` (stereo unspecified), the Activity entry in the series with SH-SY5Y [4] is listed as “Non-Toxic”; in the series on BV-2 [5] it was “Non-Toxic”; in the series on BV-2 [6], 30%; with SH-SY5Y [7], 30%. The IC50 in series [1] was 0.00035 µM. Besides, the Ratio IC50 in series [2] was determined as 14200. Also, the outcome in the series with BV-2 [8], with SH-SY5Y [9], in the series on Mus musculus [10], in the series with Mus musculus [11] and in the series on Mus musculus [12] was Active.
Turning to `C#CCNC1CCc2c(SCc3cccc(Br)c3)cccc21` (stereo unspecified), the IC50 in series [1] was more than 100 µM.
For `C#CCNC1CCc2c(SCCc3cccc(C(F)(F)F)c3)cccc21` (stereo unspecified), the half-maximal inhibitory concentration (IC50) in [1] is 3.72 µM. For the same compound, the Ratio IC50 in series [2] was 0.076.

For the origin of these results see ChEMBL document CHEMBL4811259, “Novel 1-(prop-2-yn-1-ylamino)-2,3-dihydro-1H-indene-4-thiol derivatives as potent selective human monoamine oxidase B inhibitors: Design, SAR development, and biological evaluation” (Bioorg Med Chem Lett, 2021).
